Marks after values point to notes of the source that are not given here. A value given as a limit tells only on which side of the number the result lay.

The target of data set [1] is DNA from salmon sperm. The data set can be described thus: UV-Vis spectrophotometric titration, association with DNA from salmon sperm. The class given is binding. To be noted: 1:1 complex, Tris-HCl buffer pH 7.44, CDNA 2.5 × 10^–7 M, BindFit. As to the method:
The interaction of GIS with a series of synthesized pillar[5]arenes 1–4 and DNA was studied by UV-Vis spectroscopy. UV-Vis spectroscopy is a universal method to study the complex properties of synthetic receptors. The interaction of GIS with DNA from salmon sperm was initially studied (Figure 5). DNA from salmon sperm was chosen as a model substrate due to its relatively low molecular weight and small size. The experiments were carried out in a Tris-HCl buffer system (pH = 7.44).
The association constants were determined by spectrophotometric titration to quantify the interaction of DNA with GIS. The UV-Vis spectra of the DNA–GIS system were recorded in such a way that the DNA concentration remained constant (2.5 × 10^–7 M), and the herbicide concentration ratio increased from 1:0.3 to 1:10 (Figure 5b). The obtained experimental data were processed by the BindFit program. The association constant of a 1:1 complex was calculated (Figure S23). The logarithm of the association constant of DNA with GIS was determined as lgKa = 4.92. […] However, in this case, the association constant of the complexes was determined with a large error.
Further, the interaction of macrocycles 1–4 with the DNA from salmon sperm in Tris-HCl was studied by UV-Vis spectroscopy. […] The association constant of compound 4-DNA complex was determined by spectrophotometric titration. […] The logarithm of the association constant of pillar[5]arene 4 with the DNA was determined as lgKa (4–DNA) = 5.24.
The association constant of compound 1-DNA complex was also determined by spectrophotometric titration (Figure S25b). The logarithm of the association constant of pillar[5]arene 1 with DNA was determined as lgKa(1–DNA) = 4.88 (Figure S27). […]
(§1) buffer solution. The UV spectra of the solutions were then recorded. The stability constant of complex was calculated by Bindfit. […]
(§2) volume of 3 mL with Tris‐HCl buffer solution. The UV spectra of the solutions were then recorded. The stability constant of each complex was calculated by Bindfit. […]
(§3) stability constant of complex was calculated by Bindfit. […]

The target of data set [2] is DNA from salmon sperm. The data set can be described thus: UV-Vis spectrophotometric titration of (pillar[5]arene-DNA) associates with GIS. It is filed as binding. To be noted: 1:1 composition, Tris-HCl buffer, CPA 3 × 10^–6 M, CDNA 2.5 × 10^–7 M, GIS 1:0.3 to 1:10.
Text: It is well known that water-soluble derivatives of pillar[5]arene can applicate as antidotes for various drugs. The interaction of GIS with DNA with a logarithm of the association constant of 4.92 was shown. […] In this regard, a hypothesis about the possibility of using the synthesized macrocycles as a glyphosate antidote for DNA protection was proposed. Therefore, the behavior of the associate (macrocycle-DNA) with GIS was studied by UV-Vis spectroscopy to test the hypothesis above. First, a solution of DNA (2.5 × 10^–7 M) was added to the macrocycle (1–4) solution (3 × 10^–6 M). Then the herbicide solution (CGIS = 3 × 10^–6 M) was added to the resulting associate, and the absorption spectrum of the resulting ternary system was recorded. […]
Further, the interaction of the (pillar[5]arene–DNA) associated with GIS was quantified (Figure 7c,d and Figure S28). […] The effective association constants of the (macrocycle-DNA)-GIS associates of 1:1 composition were calculated (Table 2). […]
as §1, §2, §3

Another data set relates to A549 cells. The data set can be described thus: MTT test, A549 cells. As to the method: The next stage of this work was the study of pillar[5]arenes 1–4 ability to inhibit the viability and proliferative activity of embryonic lung epithelial (LEC) and human lung adenocarcinoma (A549) cells using the MTT test.
Further, the ability of GIS to inhibit the viability and proliferative activity of LEC and A549 cells was studied by the MTT test. […] The average inhibitory concentration (IC50) was calculated for GIS (Table 3). […]
1.6. Cytotoxicity of pillar[5]arenes 1–4, GIS and their mixtures on A549 and LEC Cell Lines […]
activity of LEC cells and A549 cells was investigated using the MTT test according to [2]. A549 – human alveolar adenocarcinoma cell line (ATCC, Rockville, Maryland, USA) and cow embryo lung epithelial (LEC) cells (Animal Cell Culture Collection of Russian Academy of Agricultural Science, Kazan, Russia) were cultured in DMEM (GIBCO, Waltham, MA, USA) medium supplemented with 10% serum and 100 units/mL of penicillin (PanEco, Moscow, Russia) and streptomycin (PanEco, Moscow, Russia) in a humidified atmosphere with 5% CO2 at 37 °C. Cells were seeded in 96‐well plates at a concentration of 10^4 cells/well. After 24 h of cultivation, the medium was removed from the wells and replaced with a fresh one with the addition of the test substances. The volume of the culture medium in the wells was 100
μL. After 24 h incubation of cells in the presence of substances, the medium in the wells was replaced with a fresh one containing MTT reagent at a final concentration of 0.5 mg/mL. The cells were incubated with MTT for 4 h at 37 °C in an atmosphere of 5% CO2. Then, the medium was aspirated from the wells and 100 μL of dimethyl sulfoxide was added. Probes were incubated at 37 °C for 15 min in the dark for the formazan crystals to dissolve. The optical density of the formazan solution in the wells was measured using a plate reader (BioRad xMarkTM Microplate Spectrophotometer, USA) at a wavelength of 570 nm.
Three series of experiments were carried out with at least 8 replications for each variant in the series. […]

`C[N+](C)(CCCNC(=O)COc1cc2c(OCC(=O)NCCC[N+](C)(C)CC(=O)N[C@@H](Cc3ccccc3)C(=O)[O-])cc1Cc1cc(OCC(=O)NCCC[N+](C)(C)CC(=O)N[C@@H](Cc3ccccc3)C(=O)[O-])c(cc1OCC(=O)NCCC[N+](C)(C)CC(=O)N[C@@H](Cc1ccccc1)C(=O)[O-])Cc1cc(OCC(=O)NCCC[N+](C)(C)CC(=O)N[C@@H](Cc3ccccc3)C(=O)[O-])c(cc1OCC(=O)NCCC[N+](C)(C)CC(=O)N[C@@H](Cc1ccccc1)C(=O)[O-])Cc1cc(OCC(=O)NCCC[N+](C)(C)CC(=O)N[C@@H](Cc3ccccc3)C(=O)[O-])c(cc1OCC(=O)NCCC[N+](C)(C)CC(=O)N[C@@H](Cc1ccccc1)C(=O)[O-])Cc1cc(OCC(=O)NCCC[N+](C)(C)CC(=O)N[C@@H](Cc3ccccc3)C(=O)[O-])c(cc1OCC(=O)NCCC[N+](C)(C)CC(=O)N[C@@H](Cc1ccccc1)C(=O)[O-])C2)CC(=O)N[C@@H](Cc1ccccc1)C(=O)[O-]` [Compound 4, 4,8,14,18,23,26,28,31,32,35-Decakis-[(N-[3’-dimethyl({oxidocarbonyl[S-benzyl]methyl}aminocarbonylmethyl)ammonio]propyl)aminocarbonylmethoxy]-pillar[5]arene]: the “lgKa, logarithm of the association constant with DNA” value at DNA from salmon sperm [1] was determined as 5.24. Also, the “lgKa of (pillar[5]arene-DNA) associate with GIS” value at DNA from salmon sperm [2] was “decrease in lgKa by more than an order of magnitude”; at DNA from salmon sperm [2] (listed as betaine pillar[5]arene containing fragments of L-Phe), 3.60. Moreover, the IC50 in the data set on A549 cells (A549, MTT, 24 h) is >100 * μg/mL. Besides, the cytotoxic activity result in the data set with A549 cells (A549, concentration range 2–100 μg/mL) is “did not show statistically significant cytotoxic activity”.

(Values after PMC10179701, “Towards Protection of Nucleic Acids from Herbicide Attack: Self-Assembly of Betaines Based on Pillar[5]arene with Glyphosate and DNA” (International Journal of Molecular Sciences, 2023).)
